This note sets out measurements from ChEMBL document CHEMBL2010678, “Tigliane diterpene esters with IFN γ-inducing activity from the leaves of Aleurites fordii” (Bioorg Med Chem Lett, 2012).

Holding throughout (format): functional, cell-based
Assay [1] concerns NK92. Nature of the assay: Immunomodulatory activity in human NK92 cells assessed as induction of IFNgamma after 12 hrs by ELISA.
The subject of assay [2] is NK92. Nature of the assay: Immunomodulatory activity in human NK92 cells assessed as induction of IFNgamma at 4 nM after 12 hrs by ELISA.
Assay [3] deals with NK92. Nature of the assay: Immunomodulatory activity in human NK92 cells assessed as induction of IFNgamma at 40 nM after 12 hrs by ELISA.

Calls of active or inactive are those of the source. The calls are words filed in the database; no cut-off is given here.

In the case of `CCCCCCCCCCCCCC(=O)O[C@@H]1[C@@H](C)[C@@]2(O)[C@@H](C=C(CO)C[C@]3(O)C(=O)C(C)=C[C@@H]23)[C@@H]2C(C)(C)[C@]12OC(C)=O`, in the assay with NK92 [1], the outcome was Active. In the case of `CCCCCCCCCCCCCCCC(=O)O[C@@H]1[C@@H](C)[C@]2(O)[C@@H]3C=C(C)C(=O)[C@@H]3CC(CO)=C[C@H]2[C@H]2[C@]1(OC(C)=O)[C@@]2(C)CO`, in the assay with NK92 [1], the result was inactive. For `CCCCCCCCCCCCCCCC(=O)O[C@@H]1[C@@H](C)[C@@]2(O)[C@@H](C=C(CO)C[C@]3(O)C(=O)C(C)=C[C@@H]23)[C@@H]2C(C)(C)[C@]12OC(C)=O`, the outcome with NK92 [2] was Active. As for `CCCCCCCCCCCCCCCC(=O)O[C@@H]1[C@@H](C)[C@@]2(O)[C@@H](C(=O)C(CO)=C[C@]3(O)C(=O)C(C)=C[C@@H]23)[C@@H]2C(C)(C)[C@]12OC(C)=O`, the result in the assay with NK92 [1] was inactive.

For the compound `CCCCCCCCCCCCCCCC(=O)O[C@@H]1[C@@H](C)[C@@]2(O)[C@@H](C(=O)C(CO)=C[C@]3(O)C(=O)C(C)=C[C@@H]23)[C@H]2[C@]1(OC(C)=O)[C@@]2(C)CO`, the outcome in the assay on NK92 [3] was Active. On to `CCCCCCCCCCCCCCCC(=O)O[C@@H]1[C@@H](C)[C@@]2(O)[C@@H](C=C(CO)C[C@]3(O)C(=O)C(C)=C[C@@H]23)[C@H]2[C@]1(OC(C)=O)[C@@]2(C)CO`, for which the result in the assay with NK92 [2] was Active.
